Measured values from PubChem BioAssay (NCI).
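Tested at 5 concentrations; 48 h exposure; 96-well plates; endpoints linearly interpolated, else capped at highest concentration. The concentration for 50% growth inhibition is given as GI50. TGI: concentration producing complete growth inhibition.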

Key:
Test in all cases: NCI anticancer screen, dose series, 48 h
NCI-H522 lung = test system: NCI-H522 lung
RXF 393 renal = test system: RXF 393 renal
ACHN renal = test system: ACHN renal
HCT-116 colon = test system: HCT-116 colon
CCRF-CEM leukemia = test system: CCRF-CEM leukemia
UACC-257 melanoma = test system: UACC-257 melanoma
PC-3 prostate = test system: PC-3 prostate
IGROV1 ovarian = test system: IGROV1 ovarian
K-562 leukemia = test system: K-562 leukemia
A498 renal = test system: A498 renal

| SMILES | GI50 (NCI-H522 lung) [µM] | TGI (NCI-H522 lung) [µM] | GI50 (RXF 393 renal) [µM] | TGI (RXF 393 renal) [µM] | GI50 (ACHN renal) [µM] | TGI (ACHN renal) [µM] | GI50 (HCT-116 colon) [µM] | TGI (HCT-116 colon) [µM] | GI50 (CCRF-CEM leukemia) [µM] | TGI (CCRF-CEM leukemia) [µM] | GI50 (UACC-257 melanoma) [µM] | TGI (UACC-257 melanoma) [µM] | GI50 (PC-3 prostate) [µM] | TGI (PC-3 prostate) [µM] | GI50 (IGROV1 ovarian) [µM] | TGI (IGROV1 ovarian) [µM] | GI50 (K-562 leukemia) [µM] | TGI (K-562 leukemia) [µM] | GI50 (A498 renal) [µM] | TGI (A498 renal) [µM] |
| --- | --- | --- | --- | --- | --- | --- | --- | --- | --- | --- | --- | --- | --- | --- | --- | --- | --- | --- | --- | --- |
| O=C(O)CSc1cc(NS(=O)(=O)c2ccc(Br)cc2)c2ccccc2c1O | 16.2 | 33.7 | 13.8 | 27.9 | 12.8 | 26.6 | 5.65 | 16.2 | 4.37 | > 44.8 | 4.95 | 12.1 | 5.78 | 43.8 | 3.03 | 8.76 | 19.7 | > 59.6 | 18.3 | 34.7 |
| N#C[Se]CCN1C(=O)c2ccccc2C1=O | 4.72 | 21.9 | 1.37 | 2.86 | 3.33 | 11.9 | 1.06 | 3.23 | 0.934 | 30.3 | 2.51 | 11 | 1.74 | 8.27 | 2.02 | 6.12 | 2.35 | 15.5 |  |  |
| COc1ccc([C@@H]2[C@@H](Oc3ccccc3)C(=O)N2c2cc(OC)c(OC)c(OC)c2)cc1F | 0.0276 | 0.332 | 0.0593 | > 100 | 0.0699 | > 100 | 0.161 | 2.45 | 0.204 | > 100 |  |  | 0.23 | > 100 | 0.257 | > 100 | 0.0417 | > 100 | 0.0238 | 0.0983 |
| O=[N+]([O-])c1ccc(/C=C(/c2ccc([N+](=O)[O-])o2)S(=O)(=O)c2ccccc2)cc1 |  | > 100 |  | > 100 |  | > 100 |  | > 100 |  |  |  | > 100 |  | > 100 |  | > 100 |  | > 100 |  |  |
| NS(=O)(=O)c1cc2c(cc1Cl)NCNS2(=O)=O |  | > 100 |  |  |  | > 100 |  | > 100 |  | > 100 |  | > 100 |  | > 100 |  | > 100 |  | > 100 |  |  |
| CCCCCCCCCCN=C(N)c1ccc(N2CCN(c3ccc(C(N)=NCCCCCCCCCC)cc3)CC2)cc1 | 3.75 | > 50 | 6.82 | 36.1 | 15.7 | > 50 |  |  |  |  | 9.81 | 26.5 | 2.94 | 12.1 | 2.83 | > 50 | 1.95 | > 50 |  |  |
| COc1cc2c(cc1OCCN1CCN(CCN3C(=O)c4cccc5cccc(c45)C3=O)CC1)N=C[C@@H]1CCCN1C2=O | 18.8 | 34.8 | 14.2 | 32.2 | 17.2 | 31.5 |  |  | 19.9 | 39 | 21.1 | 48.3 | 18.1 | 32 | 19.2 | 36.9 | 25.2 | 57.7 | 20.5 | 40.4 |
